“Also recorded” adds a separate entry of the source. Read-outs that look alike come from different tables or passages of the source.
Tests used:
iNOS = assay: Immunomodulation assay: iNOS (M1 marker) expression in LPS-treated N9 microglial cells (Western blot); format: cell-based, mouse; conditions: 100 ng/mL LPS, 6 h pretreatment + 24 h, even at 0.5 μM
From the text: Microglia, essential regulators of neuroinflammatory processes, can be polarized to two distinct activation states: M1 and M2. M1 microglia have proinflammatory, neurotoxic properties and are modeled in vitro through lipopolysaccharides (LPS) activation. Alternatively, M2 microglia are involved in anti-inflammatory processes, contributing to trophic support of neurons and neuroprotective functions. A marked microglial activation with high expression levels of proinflammatory genes is found in MS lesions.[23] Conversely, the neuroprotective effects of the MS drug glatiramer are mediated by activated M2 microglia.[24] To this end, we evaluated whether 1 and 2 modulate microglial shift from an M1 neurotoxic phenotype to an M2 neuroprotective one. […] After pretreatment for 6 h and administration for a further 24 h, the microglial phenotype was evaluated through Western blot analysis of the M1-iNOS (inducible Nitric Oxide Synthase) and M2-TREM2 (Triggering Receptor Expressed on Myeloid cells 2) markers (Figure 6). We also assessed nitrite production, due to iNOS induction, in the incubation media. […]
Nitrite accumulation in cell media was assayed by the Griess reaction. […] Absorbance was read at 540 nm using a plate reader after 15 min of incubation at room […]
After 24 hours, the viability was evaluated through the MTT assay. […]

[1] = tested on: primary rat cerebellar granule neurons (CGNs); conditions: for cell survival/death in CGNs, % mean ± SE of controls (MTT): 24 h treatment; for neurotoxicity profile in CGNs (in words): 5-50 μM, 24 h
[2] = PAMPA-BBB permeation assay; conditions: for Papp at 100 µM: PAMPA, pH 7.4; for BBB penetration estimation, CNS (+/−): PAMPA-BBB prediction

SMILES | microglia production of M1 proinflammatory marker iNOS (iNOS) | cell survival/death in CGNs, % mean ± SE of controls (MTT) ([1]; 5 μM) [%] | cell survival/death in CGNs, % mean ± SE of controls (MTT) ([1]; 10 μM) [%] | cell survival/death in CGNs, % mean ± SE of controls (MTT) ([1]; 25 μM) [%] | cell survival/death in CGNs, % mean ± SE of controls (MTT) ([1]; 50 μM) [%] | neurotoxicity profile in CGNs (in words) [1] | Papp at 100 µM [2] [×10⁻⁶ cm/s] | BBB penetration estimation, CNS (+/−) [2]
CC/C=C\C/C=C\C/C=C\CCCCCCCC(=O)NCCOC(=O)C(CCC)CCC [compound 2] | significantly decrease | 97 ± 16 | 110 ± 3 | 96 ± 15 | 85 ± 14 | low neurotoxicity profile | 14.6 ± 1.61 | BBB-permeable; also recorded: CNS +
CC/C=C\C/C=C\C/C=C\CCCCCCCC(=O)NCCNC(=O)C(CCC)CCC [compound 1] | significantly decrease | 98 ± 18 | 107 ± 3 | 89 ± 14 | 99 ± 15 | low neurotoxicity profile | 28 ± 5.3 | high BBB permeability; also recorded: CNS +
